Source: PMC11346425, “Sulfoquinovosyl diacylglycerol is required for dimerisation of the Rhodobacter sphaeroides reaction centre-light harvesting 1 core complex” (Biochemical Journal, 2024)

Tests used:
Assay in all cases: light-driven cytochrome c2 oxidation at […] nm, steady state
Type in all cases: biochemical
[1] = molecular target: T1, monomeric RC-LH1 core complex (RC3-LH1_14-XY) (Cereibacter sphaeroides, UniProt Q3J1A5+Q3J1A6); conditions: 50 uM ubiquinone-2, 5 uM reduced cytochrome c2, 810 nm LED, pH 8, 0.03% beta-DDM; electron acceptor; 0.05 uM RC-LH1
T1 construct: gene pufL; native, beta-DDM-solubilised membranes, sucrose gradient monomer band; 1 RC, C-shaped LH1 of 14 subunits; with Reaction center protein M chain; Reaction center protein H chain; Light-harvesting protein B-875 alpha chain; Light-harvesting protein B-875 beta chain; Intrinsic membrane protein PufX; Protein-Y

[2] = molecular target: T1, monomeric RC-LH1 core complex (RC3-LH1_14-XY); conditions: 50 uM ubiquinone-2, 5 uM reduced cytochrome c2, 810 nm LED, pH 8, 0.03% beta-DDM; electron acceptor
[3] = molecular target: T2, dimeric RC-LH1 core complex (Cereibacter sphaeroides, UniProt Q3J1A5+Q3J1A6); conditions: 50 uM ubiquinone-2, 5 uM reduced cytochrome c2, 810 nm LED, pH 8, 0.03% beta-DDM; electron acceptor; 0.01 uM RC-LH1
T2 construct: gene pufL; native, beta-DDM-solubilised membranes, sucrose gradient dimer band; 2 RC, S-shaped LH1 of 28 subunits; with Reaction center protein M chain; Reaction center protein H chain; Light-harvesting protein B-875 alpha chain; Light-harvesting protein B-875 beta chain; Intrinsic membrane protein PufX; Protein-Y; Protein-Z

`COC1=C(OC)C(=O)C(C/C=C(\C)CCC=C(C)C)=C(C)C1=O` [ubiquinone-2] was tested, and the “light-driven cytochrome c2 oxidation at 550 nm, steady state” value (from here on “light-driven cytochrome c2 oxidation”) [1] was “Turnover assays for monomeric complexes from WT, PufX R49L R53L, ΔolsBA and ΔsqdB mutants”, the “light-driven cytochrome c2 oxidation” value [2] was “light-driven oxidation rate of cytochrome c2 by monomeric and dimeric complexes in the presence of ubiquinone-2” and the “light-driven cytochrome c2 oxidation” value [3] was “light-driven oxidation rate of cytochrome c2 by monomeric and dimeric complexes in the presence of ubiquinone-2”.
